Test results reported in ChEMBL document CHEMBL1201862, “PubChem BioAssay data set” (2004).
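A five-concentration, 48-hour dose response in 96-well plates underlies each endpoint, interpolated linearly between surrounding concentrations. The concentration for 50% growth inhibition is given as GI50.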 Active and inactive are the calls of the source. Cut-off read from the data, not from the text of the source: active = GI50 up to about 1.1 µM and inactive = higher.

Columns and labels:
Assay in all cases: NCI tumour cell line growth inhibition, 48 h
[1] = test system: ACHN
[2] = test system: CAKI-1
[3] = test system: Hs-578T
[4] = test system: MDA-MB-231
[5] = test system: MDA-N
[6] = test system: Malme-3M
[7] = test system: NCI-H23
[8] = test system: OVCAR-4
[9] = test system: OVCAR-5
[10] = test system: RPMI-8226
[11] = test system: SF-295
[12] = test system: SK-MEL-2
[13] = test system: SK-MEL-5
[14] = test system: SNB-19
[15] = test system: T47D
[16] = test system: UACC-257
[17] = test system: UACC-62
[18] = test system: HL-60
[19] = test system: IGROV-1
[20] = test system: BT-549

Row | SMILES | GI50 [1] | GI50 [2] | GI50 [3] | GI50 [4] | GI50 [5] | GI50 [6] | GI50 [7] | GI50 [8] | GI50 [9] | GI50 [10] | GI50 [11] | GI50 [12] | GI50 [13] | GI50 [14] | GI50 [15] | GI50 [16] | GI50 [17] | GI50 [18] | GI50 [19] | GI50 [20]
1 | C/C(=C\C(=O)O)C(=O)N(C)c1ccccc1I | > 100 µM (inactive) | > 100 µM (inactive) | > 100 µM (inactive) | > 100 µM (inactive) | > 100 µM (inactive) | > 100 µM (inactive) | > 100 µM (inactive) | > 100 µM (inactive) | > 100 µM (inactive) | > 100 µM (inactive) | > 100 µM (inactive) | > 100 µM (inactive) | > 100 µM (inactive) | > 100 µM (inactive) | > 100 µM (inactive) | > 100 µM (inactive) | > 100 µM (inactive) |  |  | 
2 | O=C(/C=C/c1ccsc1)c1ccsc1 | 20.4 µM (inactive) | 20.9 µM (inactive) | 27.8 µM (inactive) | 20.6 µM (inactive) | 23.2 µM (inactive) | 26.4 µM (inactive) | 21.6 µM (inactive) | 37.2 µM (inactive) |  | 15.5 µM (inactive) | 40.7 µM (inactive) | > 100 µM (inactive) | 19.2 µM (inactive) | 20.2 µM (inactive) | 28.2 µM (inactive) | 19.1 µM (inactive) | 32.4 µM (inactive) | 17 µM (inactive) | 31.3 µM (inactive) | 
3 | CCCCCCCCCCN(CCCCCCCCCC)C(=O)COc1c2cc(C(C)(C)C)cc1Cc1cc(C(C)(C)C)cc(c1OCC(=O)N(CCCCCCCCCC)CCCCCCCCCC)Cc1cc(C(C)(C)C)cc(c1OCC(=O)N(CCCCCCCCCC)CCCCCCCCCC)Cc1cc(C(C)(C)C)cc(c1OCC(=O)N(CCCCCCCCCC)CCCCCCCCCC)C2 | 14.9 µM (inactive) |  |  | 17.6 µM (inactive) | 12.2 µM (inactive) | 15 µM (inactive) | 1.75 µM (inactive) | 10.4 µM (inactive) | 13.3 µM (inactive) |  | 10.1 µM (inactive) | 7.93 µM (inactive) | 13.5 µM (inactive) | 9.79 µM (inactive) | 16.1 µM (inactive) | 15.6 µM (inactive) | 12.6 µM (inactive) | 15 µM (inactive) | 12.4 µM (inactive) | 
4 | CCC1CC2CN3CCc4c([nH]c5c(-c6c(OC)ccc7c8c([nH]c67)[C@]6(C(=O)OC)CC7CC(CC)C6N(CC8)C7)c(O)ccc45)[C@](C(=O)OC)(C2)C13 (some centres undefined) | 19.6 µM (inactive) | 12.6 µM (inactive) |  | 21.6 µM (inactive) | 12.2 µM (inactive) | > 10 µM (inactive) | 16 µM (inactive) |  | 16.6 µM (inactive) |  | 17.4 µM (inactive) | 20.9 µM (inactive) | 13.6 µM (inactive) | 14.3 µM (inactive) | 11.1 µM (inactive) | 18.6 µM (inactive) | 14.3 µM (inactive) |  | 14 µM (inactive) | 17.3 µM (inactive)
5 | Cc1csc2nc(-c3ccc(Cl)c([N+](=O)[O-])c3)c(/C=N/NC(=N)N)n12 | 1.6 µM (inactive) | 1.83 µM (inactive) | 1.4 µM (inactive) | 1.77 µM (inactive) | 1.32 µM (inactive) | 1.9 µM (inactive) | 1.7 µM (inactive) | 1.64 µM (inactive) | 1.21 µM (inactive) | 1.75 µM (inactive) | 1.4 µM (inactive) | 1.22 µM (inactive) | 1.52 µM (inactive) | 1.3 µM (inactive) | 1.81 µM (inactive) | 0.459 µM (active) | 1.72 µM (inactive) | 1.7 µM (inactive) |  | 
6 | Cc1nc(Cc2n[nH]c(C)n2)n[nH]1 | > 100 µM (inactive) |  |  | > 100 µM (inactive) | > 100 µM (inactive) |  | > 100 µM (inactive) | > 100 µM (inactive) | > 100 µM (inactive) | > 100 µM (inactive) | > 100 µM (inactive) | > 100 µM (inactive) | > 100 µM (inactive) | > 100 µM (inactive) |  | > 100 µM (inactive) | > 100 µM (inactive) |  | > 100 µM (inactive) | > 100 µM (inactive)
7 | COc1nc(NC2OC(COC(C)=O)C(OC(C)=O)C(OC(C)=O)C2OC(C)=O)c(/N=C(\C)C(C)=O)c(=O)n1C (centres undefined) | > 100 µM (inactive) | > 100 µM (inactive) |  |  |  | > 100 µM (inactive) | > 100 µM (inactive) | > 100 µM (inactive) | > 100 µM (inactive) | > 100 µM (inactive) | > 100 µM (inactive) | > 100 µM (inactive) | > 100 µM (inactive) | > 100 µM (inactive) |  | > 100 µM (inactive) | > 100 µM (inactive) | > 100 µM (inactive) | > 100 µM (inactive) | 
8 | CSc1c(C)c(C)nn1-c1ccccc1 | > 100 µM (inactive) | > 100 µM (inactive) |  |  |  | > 100 µM (inactive) | > 100 µM (inactive) | > 100 µM (inactive) | > 100 µM (inactive) | > 100 µM (inactive) | > 100 µM (inactive) | > 100 µM (inactive) | > 100 µM (inactive) | > 100 µM (inactive) |  | > 100 µM (inactive) | > 100 µM (inactive) | 81.1 µM (inactive) | > 100 µM (inactive) | 
9 | C=CCCCCCCC#CCCCCCCCCCC[C@@H]1C(=O)O[C@H](C)[C@@H]1O.CCCCCCCCC#CCCCCCCCCCC[C@@H]1C(=O)O[C@H](C)[C@@H]1O | 17.7 µM (inactive) | 15.5 µM (inactive) |  | 23.6 µM (inactive) | 23.2 µM (inactive) | 17.5 µM (inactive) | 8.39 µM (inactive) | 16.4 µM (inactive) | 59.2 µM (inactive) | 16.5 µM (inactive) | 18.8 µM (inactive) | 14.7 µM (inactive) | 13.3 µM (inactive) | 15.9 µM (inactive) | 14.9 µM (inactive) | 8.45 µM (inactive) |  |  | 15.7 µM (inactive) | 15.5 µM (inactive)
10 | CCOC(=O)C1C(=S)NC(=O)C1C#N (centres undefined) | > 100 µM (inactive) | > 100 µM (inactive) |  |  |  | > 100 µM (inactive) | > 100 µM (inactive) | > 100 µM (inactive) | > 100 µM (inactive) | > 100 µM (inactive) | > 100 µM (inactive) | > 100 µM (inactive) | > 100 µM (inactive) | > 100 µM (inactive) |  | > 100 µM (inactive) | > 100 µM (inactive) | > 100 µM (inactive) | > 100 µM (inactive) | 
11 | COc1ccc(CCN2C(=O)CC34C=CC(CC3C2=O)O4)cc1OC (centres undefined) | > 100 µM (inactive) | > 100 µM (inactive) |  | > 100 µM (inactive) | > 100 µM (inactive) |  | > 100 µM (inactive) | > 100 µM (inactive) | > 100 µM (inactive) | > 100 µM (inactive) | > 100 µM (inactive) | > 100 µM (inactive) | > 100 µM (inactive) | > 100 µM (inactive) | > 100 µM (inactive) | > 100 µM (inactive) | > 100 µM (inactive) | > 100 µM (inactive) | > 100 µM (inactive) | > 100 µM (inactive)
12 | CC(=O)OCC1OC(OCC2OC(N3C(=S)N[C@H]([C@@H](O)[C@H](O)[C@H](O)CO)[C@H]3O)C(OC(C)=O)C(OC(C)=O)C2OC(C)=O)C(OC(C)=O)C(OC(C)=O)C1OC(C)=O (some centres undefined) | > 100 µM (inactive) | > 100 µM (inactive) |  | > 100 µM (inactive) | > 100 µM (inactive) | > 100 µM (inactive) | > 100 µM (inactive) | > 100 µM (inactive) | > 100 µM (inactive) | 79.8 µM (inactive) | > 100 µM (inactive) | > 100 µM (inactive) | > 100 µM (inactive) | > 100 µM (inactive) | 61.8 µM (inactive) |  | > 100 µM (inactive) |  |  | 
13 | N#COc1ccc(Oc2ccccc2)cc1 | 29.2 µM (inactive) | 77.6 µM (inactive) |  |  |  | > 100 µM (inactive) | 39.4 µM (inactive) | > 100 µM (inactive) | > 100 µM (inactive) | 30.4 µM (inactive) | 59.8 µM (inactive) | 74.3 µM (inactive) | 46.6 µM (inactive) | > 100 µM (inactive) |  | > 100 µM (inactive) | 31.5 µM (inactive) | 26.3 µM (inactive) | 68.4 µM (inactive) | 
14 | C/N=C(\N)N/N=C(\C)c1ccc2oc3ccc(/C(C)=N/N/C(N)=N/C)cc3c2c1 | 5.45 µM (inactive) | 19.4 µM (inactive) | 1.43 µM (inactive) |  | 3.62 µM (inactive) |  | 2.39 µM (inactive) | 3.8 µM (inactive) | 9.35 µM (inactive) | 2.38 µM (inactive) | 3.85 µM (inactive) | 2 µM (inactive) | 2.62 µM (inactive) | 2.11 µM (inactive) |  | 25.6 µM (inactive) | 2.88 µM (inactive) | 2.89 µM (inactive) | 2.24 µM (inactive) | 
15 | CNCCCCN(C)/[N+]([O-])=N\O | > 100 µM (inactive) | > 100 µM (inactive) |  |  |  | > 100 µM (inactive) | > 100 µM (inactive) | > 100 µM (inactive) | > 100 µM (inactive) | > 100 µM (inactive) | > 100 µM (inactive) | > 100 µM (inactive) | > 100 µM (inactive) | > 100 µM (inactive) |  | > 100 µM (inactive) | > 100 µM (inactive) | > 100 µM (inactive) | > 100 µM (inactive) | 
16 | CC(=O)c1c2c(cc3c1CC1(Cc4cc5c(cc4C1)CCC5)C3)CCC2 | > 100 µM (inactive) | > 100 µM (inactive) | > 100 µM (inactive) | > 100 µM (inactive) | > 100 µM (inactive) | > 100 µM (inactive) | > 100 µM (inactive) | > 100 µM (inactive) | > 100 µM (inactive) | > 100 µM (inactive) | > 100 µM (inactive) | > 100 µM (inactive) | > 100 µM (inactive) | > 100 µM (inactive) | > 100 µM (inactive) | 63.8 µM (inactive) |  | > 100 µM (inactive) | > 100 µM (inactive) | 
